Assay results from patent US12582614B2, “Composition for preventing, alleviating or treating sarcopenia, containing D-ribo-2-hexulose as active ingredient” (KYUNGPOOK NATIONAL UNIVERSITY INDUSTRY-ACADEMIC COOPERATION …, priority 2021, dated 2026).

Experiments:
Type in all cases: in vivo, C57BL/6J male mice
[1] = system: hepatic glucose-6-phosphatase (G6P); assay: Hepatic glucose-6-phosphatase measurement; settings: DRH group vs NC group
[2] = system: insulin-like growth factor 1 (IGF-1); assay: IHC analysis of muscle tissue, IGF-1; settings: reduction in NC vs YC
Procedure: For morphological tissue observation, parts of liver and muscle tissues were fixed with a 10% formaldehyde solution for 24 hours. Thereafter, the samples were subjected to replacement with the same solution twice, dehydrated twice with ethanol, embedded in paraffin, and treated with poly-L-lysine to prepare tissue slices having a thickness of 5 μm. For morphological analysis, among the prepared tissue sections, the liver tissue was stained with H&E and MT, and the muscle tissue was stained with H&E and Sirius red, and magnified 200 times under an optical microscope. For IHC analysis, the muscle tissue was stained with IGF-1 and Myostatin, and then observed under an optical microscope.

TNF-α = assay: Western blotting of TNF-α expression; settings: DRH group vs NC group
Procedure: The amount of cytoplasmic and membrane proteins was quantified according to the Bradford method. Thereafter, a protein load was applied onto a 10% SDS-polyacrylamide gel, transferred to a Tris-glycine electrophoresis buffer for an hour, and then electrophoresed. The positions of the bands were confirmed using a Ponceau solution, blocking (5% skim milk in TBS/0.1% Tween-20) was performed at room temperature for 60 minutes in order to reduce non-specific reactions to the membrane. Then, the samples were reacted with a primary antibody overnight at 4° C. […]

[3] = Liver and erythrocyte H2O2 content and TBARs; settings: DRH supplementation; increase in NC vs YC
aged mice [4] = assay: Fat and muscle weight
aged mice [5] = assay: Whole-body tension (digital force gauge); settings: DRH group; decrease in NC vs YC
Procedure: The whole-body tension was measured and evaluated using a digital force gauge (Korea, JM Instruments Corp., FGJN.FGP Series). For each mouse, the whole-body tension was measured and evaluated at intervals of 5 days. In order to evaluate the whole-body tension on week 10 of the experiment, the average value of the maximum whole-body tension was calculated as force per body weight (Ng^−1 BW).

[6] = Body weight, food intake and organ weights of aged mice fed 3% D-ribo-2-hexulose diet for 12 weeks
Procedure: Twenty-one 48-week-old C57BL/6J male mice and seven 8-week-old C57BL/6J male mice were purchased from JA BIO Inc. (Korea). The purchased animals were raised in a breeding room with a controlled temperature (20 to 23° C.) and a light/dark cycle (a 12-hour cycle), and were provided with pelletized commercial non-purified feed for the first week.
(§1) Specifically, a negative control group (NC, n=7, American Institute of Nutrition AIN-93G Semisynthetic diet); a D-ribo-2-hexulose-treated group (D-ribo-2-hexulose; DRH, n=7; a portion of cellulose in AIN-93G was replaced with 3% D-ribo-2-hexulose). […] The dose of D-ribo-2-hexulose was set at 3% based on previous animal studies. In the previous studies, the dose of D-ribo-2-hexulose was determined to be 3% in order to investigate a biological effect at a lower dose than the dose. During the experiment, the mice had free access to distilled water, and the food intakes and body weights of the mice were measured weekly, and blood glucose was measured once every 4 weeks. All animal experiments were approved by the Animal Research Ethics Committee of KyungPook National University (Approval Number: KNU-2020-109).

[7] = system: Akt, AMPK, PI3K, mTOR, PGC1-α, and phosphorylated variants thereof; assay: Western blotting of protein levels of muscle enhancement factors; settings: DRH group vs NC group
Procedure: The amount of cytoplasmic and membrane proteins was quantified according to the Bradford method. Thereafter, a protein load was applied onto a 10% SDS-polyacrylamide gel, transferred to a Tris-glycine electrophoresis buffer for an hour, and then electrophoresed. The positions of the bands were confirmed using a Ponceau solution, blocking (5% skim milk in TBS/0.1% Tween-20) was performed at room temperature for 60 minutes in order to reduce non-specific reactions to the membrane. Then, the samples were reacted with a primary antibody overnight at 4° C.
Each of the antibodies was reacted with 5% skim milk diluted in the following ratios: Rabbit anti-mouse PGC1-α (1:1,000; Santa Cruz, USA), rabbit anti-mouse α-tubulin (1:1,000; Cell Signaling Technology, USA), rabbit anti-mouse p-Akt (1:1,000; Cell Signaling Technology, USA), rabbit anti-mouse Akt (1:1,000; Cell Signaling Technology, USA), rabbit anti-mouse p-PI3K (1:1,000; Cell Signaling Technology, USA), rabbit anti-mouse PI3K (1:1,000; Cell Signaling Technology), rabbit anti-mouse mTOR (1:1,000; Cell Signaling Technology, USA), rabbit anti-mouse TNF-α (1:1,000; Cell Signaling Technology, USA), rabbit anti-mouse adiponectin (1:1,000; Cell Signaling Technology, USA), rabbit anti-mouse haptoglobin (1:1,000; Abcam, USA), rabbit anti-mouse SCD1 (1:1,000; Cell Signaling Technology, USA), goat anti-mouse CerS1 (1:1,000; Novus Biologicals Ltd., USA), and rabbit anti-mouse NF-κB (1:000; Cell Signaling Technology, USA). The protein bands were washed, and the membrane was then reacted with a primary antibody in a TBST buffer (25 mM Tris-base, 155 mM NaCl, 0.1% Tween-20) in the presence of anti-rabbit IgG (1:1,000; Amersham Ltd., UK) or anti-goat IgG (1:1,000; ABcam Inc., USA) secondary antibodies for 30 minutes, and reacted at room temperature for an hour. Then, the membrane was washed again with a TBST buffer for 30 minutes. Immunoreactive bands were developed on a film using an ECL kit (Pierce Chemical Co., IL) to check the bands in a final state.

GSH, PON, GR = assay: Antioxidant enzyme activity in liver and plasma; settings: DRH supplementation; decrease in NC vs YC
Procedure: To analyze antioxidant activity, superoxide dismutase (SOD) activity was measured in an alkaline state by pyrogallol autoxidation using a modified method of Marklund et al. Also, catalase (CAT) activity was measured using a modified method of Aebi et al. Paraoxonase (PON) activity was measured using a modified method of Mackness et al. in order to measure an increase in absorbance of p-nitrophenol. Glutathione reductase (GR) activity was measured using a modified method of Pinto and Bartley, which was used to measure NADPH oxidation. Total glutathione (GSH) content was measured using a modified method of Ellman et al.

[8] = Muscle and liver glycogen and fasting blood glucose
Procedure: as §1

[9] = DRH group, aged mice, AIN-93G + 3% DRH 12 weeks, Mean ± SD

O=C(CO)[C@H](O)[C@H](O)[C@H](O)CO [DRH, D-ribo-2-hexulose]
hepatic glucose-6-phosphatase (G6P) [1]: significantly increased | expression level of IGF-1 [2]: improved this reduction | TNF-α expression (TNF-α): significantly decreased | liver H2O2 content [3]: significantly reduced | ratio of the total weight of muscle tissue to the total weight of adipose tissue (aged mice [4]; DRH group vs NC group): significantly increased | total weight of muscle tissue (aged mice [4]; DRH group vs NC group): no significant difference | fat weight (aged mice [4]; DRH supplementation): reduced | whole-body tension (aged mice [5]): dramatically compensated for the decrease | final body weight ([6]; DRH group vs NC group): significantly lower | kidney weight ([6]; DRH group vs NC group): increased | liver weight ([6]; DRH group vs NC group): decreased | spleen weight ([6]; DRH group vs NC group): no significant difference | weight gain ([6]; DRH group vs NC group): significantly lower | Final BW [6, 9]: 37.59 ± 0.56^$$ g | Total BWG [6, 9]: 1.36 ± 0.20^$$$ g | kidney weight [6, 9]: 1.10 ± 0.02^$$ g per 100 g BW | liver weight [6, 9]: 3.71 ± 0.07^$ g per 100 g BW | spleen weight [6, 9]: 0.20 ± 0.02 ^ g per 100 g BW | protein level of AMPK and phosphorylated variant [7]: significantly increased | protein level of Akt and phosphorylated variant [7]: significantly increased | protein level of PGC1-α [7]: significantly increased | protein level of PI3K and phosphorylated variant [7]: significantly increased | protein level of mTOR and phosphorylated variant [7]: significantly increased | liver GR activity (GSH, PON, GR): increased | liver GSH-Px activity (GSH, PON, GR): increased | liver PON activity (GSH, PON, GR): increased | plasma PON activity (GSH, PON, GR): increased | fasting blood glucose level ([8]; at 12 weeks, DRH group vs NC group): significantly decreased | liver glycogen content ([8]; between the groups): not significantly different | muscle glycogen content ([8]; quadriceps, between the groups): not significantly different
